Settings: Liquid, Closed cell (Static) method

FC(F)CC(F)(F)F [1,1,1,3,3-pentafluoropropane]
Settings	vapor or sublimation pressure [kPa]
235.65 K	6.9
237.61 K	7.83
239.61 K	8.89
241.65 K	10.09
243.57 K	11.33
245.57 K	12.77
247.67 K	14.43
249.72 K	16.22
251.16 K	17.6
251.64 K	18.05
252.68 K	19.12
253.7 K	20.23
255.59 K	22.39
256.66 K	23.69
257.56 K	24.84
259.6 K	27.62
261.27 K	30.07
261.47 K	30.38
261.62 K	30.62
263.88 K	34.3
265.69 K	37.48
266.4 K	38.77
267.21 K	40.32
267.51 K	40.9
267.65 K	41.19
269.61 K	45.21
271.59 K	49.58
271.73 K	49.9
272.61 K	51.93
273.73 K	54.67
275.73 K	59.81
277.71 K	65.28
277.74 K	65.39
279.71 K	71.23
279.72 K	71.27
281.62 K	77.24
281.74 K	77.66
282.67 K	80.74
283.01 K	81.9
283.62 K	84.01
285.6 K	91.2
287.57 K	98.81
287.58 K	98.82
287.63 K	99.06
289.64 K	107.32
291.68 K	116.25
292.11 K	118.22
292.56 K	120.29
293.02 K	122.46
294.05 K	127.38
296.05 K	137.42
297.68 K	146.08
298.07 K	148.16
299.99 K	158.97
302.22 K	172.36
302.61 K	174.75
302.82 K	176.04
306.06 K	197.31
308.24 K	212.7
312.05 K	241.93
314.67 K	263.68
316.8 K	282.34
318.62 K	299.22
321.02 K	322.69
324.94 K	363.8
326.92 K	386.02
328.21 K	401
328.88 K	409.17
332.34 K	452.27
334.54 K	481.58
335.06 K	488.66
337.05 K	516.55
337.07 K	516.91
337.71 K	526.04
339.46 K	552.03
340.65 K	570.3
340.66 K	570.45
343.11 K	609.1
344.74 K	636.25
345.11 K	642.16
347.04 K	675.54
348.61 K	703.69
349.13 K	713.08
349.32 K	716.41
351.61 K	759.56
363.48 K	1014
365.4 K	1060.6
368.8 K	1147.1
371.52 K	1219.9
373.61 K	1278.4
374.58 K	1306
375.9 K	1344.6
378.5 K	1422.7
380.59 K	1487.9
380.96 K	1500
383.23 K	1573.6
386.07 K	1669.5
388.53 K	1757
391.15 K	1853.4
393.55 K	1945
394.58 K	1985.6
396.2 K	2050.7
398.69 K	2153.7
401.04 K	2254.6
402.98 K	2340.8
404.3 K	2400.9
404.32 K	2401.7
405.05 K	2435.4
407.08 K	2531.5
408.53 K	2601.7
409.04 K	2626.5
409.43 K	2646
411.13 K	2731.4
413.25 K	2841.1
414.11 K	2886.6
414.65 K	2916.1
415.27 K	2949.2
417.28 K	3060.7
419.31 K	3176.2
420.09 K	3221.7
422.02 K	3337.1
422.45 K	3363
424.01 K	3459.9
424.32 K	3479.2
424.52 K	3491.6
426.47 K	3617.9
427.08 K	3658.3

FC(C(F)(F)F)C(F)(F)F [1,1,1,2,3,3,3-heptafluoropropane]
Settings	vapor or sublimation pressure [kPa]
233.8 K	33.41
235.53 K	36.68
237.5 K	40.7
237.93 K	41.62
239.21 K	44.45
241.12 K	48.94
243.06 K	53.89
245.07 K	59.45
247.09 K	65.47
247.15 K	65.66
249.1 K	71.95
251.21 K	79.25
253.11 K	86.34
255.19 K	94.66
257.15 K	103.11
257.2 K	103.29
258.2 K	107.8
259.06 K	111.83
261.03 K	121.45
262.97 K	131.55
265.23 K	144.08
267.13 K	155.39
269.15 K	168.13
271.12 K	181.25
271.9 K	186.72
273.22 K	196.14
275.23 K	211.33
277.22 K	227.17
277.55 K	229.88
279.11 K	243.04
281.21 K	261.71
283.19 K	280.28
283.23 K	280.58
285.14 K	299.44
287.16 K	320.43
287.95 K	329.02
289.06 K	341.15
291.11 K	364.72
292.83 K	385.4
293.23 K	390.27
294.98 K	412.44
297.07 K	440.12
297.75 K	449.31
299.11 K	468.35
301.1 K	497.27
303.22 K	529.51
306.1 K	575.88
308.04 K	608.64
318.59 K	813.28
320.55 K	856.24
321.06 K	867.63
328.3 K	1043.7
331.45 K	1127.8
338.37 K	1331.1
341.94 K	1446
348.87 K	1690.7
352.27 K	1822.1
359.69 K	2136.3
360.92 K	2192.1
371.37 K	2720.8
371.43 K	2723.8

— the NIST ThermoML archive (doi:10.1016/j.fluid.2009.08.023)
